This passage reports IC50 results from patent publication US7208503B2, “Angiogenesis inhibiting 5-substituted-1,2,4-thiadiazolyl derivatives” (Janssen Pharmaceutica N.V., priority 2000, dated 2007).

The subject of the experiment is rat aortic ring microvessel formation. As to the kind of experiment: rat aortic ring model of angiogenesis (microvessel formation). It is filed as cell-based. The settings on record: 192 h; in vitro rat aortic rings, microvessel area after eight days in culture, compared to vehicle-treated control rings; read-out: IC50 (inhibition of microvessel formation, angiogenesis inhibitory activity). How it is done: Angiogenesis inhibitory activity was measured in vitro using the rat aortic ring model of angiogenesis as described by Nicosia, R. F. and Ottinetti in “Laboratory Investigation”, vol. 63, p. 115, 1990. The ability of compounds to inhibit microvessel formation was compared to vehicle-treated control rings. Quantitation (microvessel area) following eight days in culture was performed using an image analysis system, consisting of a light microscope, a CCD camera and an automated, custom-designed image analysis program as described by Nissanov, J., Tuman, R. W., Gruver, L. M., and Fortunato, J. M. in “Laboratory Investigation”, vol 73 (#5), p. 734, 1995. Compounds were tested at several concentrations for determination of inhibitory potency (IC50's).

The IC50 is the concentration that gives 50% inhibition. Turning to `Cc1nsc(-c2ccc(N3CCN(c4cccc(C(F)(F)F)c4)CC3)cc2)n1` [Compound 2, 1-[4-(3-methyl-1,2,4-thiadiazol-5-yl)phenyl]-4-[3-(trifluoromethyl)phenyl]piperazine], the IC50 is below 10 nM.

`Cc1nsc(-c2ccc(N3CCN(c4cccc(C(F)(F)F)c4)CC3)nc2)n1` [Compound 6, 1-[5-(3-methyl-1,2,4-thiadiazol-5-yl)-2-pyridinyl]-4-[3-(trifluoromethyl)-phenyl]-piperazine]: the IC50 is below 10 nM.
